Holding throughout (format): in vivo
For assay [1], the system named is Beet Armyworm (Spodoptera exigua, LAPHEG). Nature of the assay: Bioassays on Beet Armyworm (BAW), 128-well diet tray assay. The conditions noted are these: Spodoptera exigua. The procedure, abridged: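 Mortality of second-instar larvae (1–5/well) on artificial diet treated with 50 μg/cm^2 compound, read after 5–7 days at 25° C.; values are means of eight wells.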

For assay [2], the system named is Cabbage Looper (Trichoplusia ni, TRIPNI). Put plainly: Bioassays on Cabbage Looper (CL), 128-well diet tray assay. The conditions noted are these: Trichoplusia ni. The gist of the method: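 Test molecule was dissolved in 90:10 acetone-water, applied to artificial diet at 50 μg/cm^2 and allowed to dry. Second-instar larvae were then added, one to five per well, and trays held at 25° C for five to seven days before mortality was scored and averaged.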

For assay [3], the system named is Yellow Fever Mosquito (Aedes aegypti, AEDSAE). Particulars: for YFM rating: Table ABC / ABC-DP rating. The procedure, abridged: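 Mortality after 3 days at room temperature is the read-out, scored well by well and converted to a rating. Test molecules came from 4000 ppm stocks in DMSO, further diluted in 90:10 water/acetone, and were exposed to roughly 1-day-old larvae suspended in liver-powder water.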

The mark [4] stands for this setting: Beet Armyworm, Table ABC / ABC-DP rating, read-out: BAW rating.
The mark [5] stands for this setting: Cabbage Looper, Table ABC / ABC-DP rating, read-out: CL rating.
[6] abbreviates: Beet Armyworm, rating class, read-out: BAW.
Where [7] appears, read: Cabbage Looper, rating class, read-out: CL.
Setting [8] is: Yellow Fever Mosquito, rating class.
The mark [9] stands for this setting: Table ABC: Biological Results, species BAW, read-out: BAW.
The mark [10] stands for this setting: Table ABC: Biological Results, species CL, read-out: CL.
Where [11] appears, read: Table ABC: Biological Results, species YFM.

Where two headings read alike, the source gives them in different places.

For `CCC(F)(F)CNC(=O)c1cc(NC(=O)[C@H]2[C@H](c3cc(Cl)cc(Cl)c3)C2(Cl)Cl)ccc1Cl` (relative stereo) [F2086, trans-2-Chloro-5-(2,2-dichloro-3-(3,5-dichlorophenyl)cyclopropane-1-carboxamido)-N-(2,2-difluorobutyl)benzamide], the pest or weed control at 50 µg/cm2 in assay [1] (setting [4]) and in assay [2] (setting [5]) was 50 to 100% each time. Further, the YFM rating result in assay [3] (Yellow Fever Mosquito) is given as “A (80–100)”.

Turning to `O=C(Nc1ccc(F)c(NC(=O)C(F)(F)C(F)F)c1F)c1cc(NC(=O)[C@H]2[C@H](c3cc(F)cc(C(F)(F)F)c3)C2(Cl)Cl)ccc1Cl` [F1707, 2-Chloro-5-((1R,3R)-2,2-dichloro-3-(3-fluoro-5-(trifluoromethyl)phenyl)cyclopropane-1-carboxamido)-N-(2,4-difluoro-3-(2,2,3,3-tetrafluoropropanamido)phenyl)benzamide], the pest or weed control at 50 µg/cm2 in assay [1] (setting [6]) and in assay [2] (setting [7]) was 50 to 100% each time. Also, the YFM result in assay [3] (setting [8]) is “A (80–100)”.

In the case of `O=C(NCC(F)(F)F)c1cc(NC(=O)[C@H]2[C@H](c3c(F)c(F)c(F)c(F)c3F)C2(Cl)Cl)ccc1Cl` (relative stereo) [F2002, trans-2-Chloro-5-(2,2-dichloro-3-(perfluorophenyl)cyclopropane-1-carboxamido)-N-(2,2,2-trifluoroethyl)benzamide], the pest or weed control at 50 µg/cm2 in assay [1] (setting [4]) and in assay [2] (setting [5]) was 50 to 100% throughout. For the same compound, the YFM rating result in assay [3] (Yellow Fever Mosquito) is listed as “A (80–100)”.

As to `Cc1cc(NCc2ccc(O)cc2)ccc1NC(=O)c1cc(NC(=O)[C@H]2[C@H](c3cc(Cl)cc(Cl)c3)C2(Cl)Cl)ccc1Cl` (relative stereo) [F1353, trans-2-Chloro-5-(2,2-dichloro-3-(3,5-dichlorophenyl)cyclopropane-1-carboxamido)-N-(4-((4-hydroxybenzyl)amino)-2-methylphenyl)benzamide], the pest or weed control at 50 µg/cm2 in assay [1] (setting [9]) and in assay [2] (setting [10]) was 50 to 100% in each case. Moreover, in assay [3] (setting [11]), the YFM result is recorded as “A (80–100)”.

Regarding `N#CC1(C(=O)Nc2c(F)ccc(NC(=O)c3cc(NC(=O)[C@H]4[C@H](c5ccc(F)c(C(F)(F)F)c5)C4(Cl)Cl)ccc3Cl)c2F)CC1` [F1263, 2-Chloro-N-(3-(1-cyanocyclopropane-1-carboxamido)-2,4-difluorophenyl)-5-((1R,3R)-2,2-dichloro-3-(4-fluoro-3-(trifluoromethyl)phenyl)cyclopropane-1-carboxamido)benzamide], the pest or weed control at 50 µg/cm2 in assay [1] (setting [9]) and in assay [2] (setting [10]) was 50 to 100% each time. Further, the YFM entry in assay [3] (setting [11]) is listed as “A (80–100)”.

In the case of `COc1ccc(CNc2c(F)ccc(NC(=O)c3cc(NC(=O)[C@H]4[C@H](c5ccc(F)c(C(F)(F)F)c5)C4(Cl)Cl)ccc3Cl)c2F)cc1` (relative stereo) [F1096, trans-2-Chloro-5-(2,2-dichloro-3-(4-fluoro-3-(trifluoromethyl)phenyl)cyclopropane-1-carboxamido)-N-(2,4-difluoro-3-((4-methoxybenzyl)amino)phenyl)benzamide], the pest or weed control at 50 µg/cm2 in assay [1] (setting [9]) and in assay [2] (setting [10]) was 50 to 100% in each case. The YFM entry in assay [3] (setting [11]) is “A (80–100)”.

Consider `O=C(Nc1ccc(F)c(NC(=O)C(F)F)c1F)c1cc(NC(=O)[C@H]2[C@H](c3ccc(Br)cc3)C2(Cl)Cl)ccc1Cl` (relative stereo) [F1597, trans-5-(3-(4-Bromophenyl)-2,2-dichlorocyclopropane-1-carboxamido)-2-chloro-N-(3-(2,2-difluoroacetamido)-2,4-difluorophenyl)benzamide], for which the pest or weed control at 50 µg/cm2 in assay [1] (setting [6]) and in assay [2] (setting [7]) was 50 to 100% in each case. Besides, the YFM entry in assay [3] (setting [8]) was “A (80–100)”.

With `CCC(Cl)C(=O)Nc1c(F)ccc(NC(=O)c2cc(NC(=O)[C@H]3[C@H](c4ccc(F)c(C(F)(F)F)c4)C3(Cl)Cl)ccc2Cl)c1F` (stereo partly drawn) [F1668, 2-Chloro-N-(3-(2-chlorobutanamido)-2,4-difluorophenyl)-5-((1R,3R)-2,2-dichloro-3-(4-fluoro-3-(trifluoromethyl)phenyl)cyclopropane-1-carboxamido)benzamide], the pest or weed control at 50 µg/cm2 in assay [1] (setting [6]) and in assay [2] (setting [7]) was 50 to 100% in each case. For the same compound, in assay [3] (setting [8]), the YFM result is reported as “A (80–100)”.

`Cc1cc(NC(=O)[C@H]2[C@H](c3ccc(F)c(Cl)c3)C2(Cl)Cl)cc(C(=O)Nc2ccccc2)c1Cl` (relative stereo) [F1183, trans-2-Chloro-5-(2,2-dichloro-3-(3-chloro-4-fluorophenyl)cyclopropane-1-carboxamido)-3-methyl-N-phenylbenzamide]: the pest or weed control at 50 µg/cm2 in assay [1] (setting [9]) and in assay [2] (setting [10]) was 50 to 100% throughout. The YFM result in assay [3] (setting [11]) is reported as “A (80–100)”.

`CN(NC(=O)c1cc(NC(=O)[C@H]2[C@H](c3cc(Cl)cc(Cl)c3)C2(Cl)Cl)ccc1Cl)C(=O)C1(C#N)CC1` (relative stereo) [F2525, trans-2,2-Dichloro-N-(4-chloro-3-(2-(1-cyanocyclopropane-1-carbonyl)-2-methylhydrazine-1-carbonyl)phenyl)-3-(3,5-dichlorophenyl)cyclopropane-1-carboxamide]: the pest or weed control at 50 µg/cm2 in assay [1] (setting [4]) and in assay [2] (setting [5]) was 50 to 100% throughout. For the same compound, in assay [3] (Yellow Fever Mosquito), the YFM rating result was “A (80–100)”.

With `O=C(NCC(F)(F)C(F)(F)F)c1cc(NC(=O)[C@H]2[C@H](c3ccc(F)c(C(F)(F)F)c3)C2(Cl)Cl)c(F)cc1Cl` [F2085, 2-Chloro-5-((1R,3R)-2,2-dichloro-3-(4-fluoro-3-(trifluoromethyl)phenyl)cyclopropane-1-carboxamido)-4-fluoro-N-(2,2,3,3,3-pentafluoropropyl)benzamide], the pest or weed control at 50 µg/cm2 in assay [1] (setting [4]) and in assay [2] (setting [5]) was 50 to 100% throughout. Moreover, the YFM rating result in assay [3] (Yellow Fever Mosquito) is on record as “A (80–100)”.

With `O=C(CCCC(F)(F)F)Nc1c(F)ccc(NC(=O)c2cc(NC(=O)[C@H]3[C@H](c4ccc(F)c(C(F)(F)F)c4)C3(Cl)Cl)ccc2Cl)c1F` [F1830, 2-Chloro-5-((1R,3R)-2,2-dichloro-3-(4-fluoro-3-(trifluoromethyl)phenyl)cyclopropane-1-carboxamido)-N-(2,4-difluoro-3-(5,5,5-trifluoropentanamido)phenyl)benzamide], the pest or weed control at 50 µg/cm2 in assay [1] (setting [4]) and in assay [2] (setting [5]) was 50 to 100% throughout. Further, the YFM rating entry in assay [3] (Yellow Fever Mosquito) is given as “A (80–100)”.

As for `CO[C@H](C)C(=O)Nc1c(F)ccc(NC(=O)c2cc(NC(=O)[C@H]3[C@H](c4ccc(F)c(C(F)(F)F)c4)C3(Cl)Cl)ccc2Cl)c1F` [F1689, 2-Chloro-5-((1R,3R)-2,2-dichloro-3-(4-fluoro-3-(trifluoromethyl)phenyl)cyclopropane-1-carboxamido)-N-(2,4-difluoro-3-((R)-2-methoxypropanamido)phenyl)benzamide], the pest or weed control at 50 µg/cm2 in assay [1] (setting [6]) and in assay [2] (setting [7]) was 50 to 100% throughout. For the same compound, the YFM entry in assay [3] (setting [8]) is on record as “B (More than 0 – Less than 80)”.

As for `CCN(C(=O)C(F)F)c1c(F)ccc(NC(=O)c2cc(NC(=O)[C@H]3[C@H](c4ccc(F)c(C(F)(F)F)c4)C3(Cl)Cl)ccc2Cl)c1F` [F1452, 2-Chloro-5-((1R,3R)-2,2-dichloro-3-(4-fluoro-3-(trifluoromethyl)phenyl)cyclopropane-1-carboxamido)-N-(3-(N-ethyl-2,2-difluoroacetamido)-2,4-difluorophenyl)benzamide], the pest or weed control at 50 µg/cm2 in assay [1] (setting [6]) and in assay [2] (setting [7]) was 50 to 100% in each case. Further, the YFM result in assay [3] (setting [8]) is recorded as “A (80–100)”.

For the origin of these results see patent publication US20250228239A1, “MOLECULES HAVING PESTICIDAL UTILITY, AND INTERMEDIATES, COMPOSITIONS, AND PROCESSES, RELATED THERETO” (priority 2024, published 2025).
